In patent US9469878B2, “Methods of treating cancer comprising targeting NQO1” (The Board of Regents of the University of Texas System, priority 2010, dated 2016):

Assays:
NQO1 [1] = target: T1, NQO1 (Homo sapiens, UniProt P15559, R139W); test: NQO1 enzyme assays using β-lapachone or the standard menadione substrates; type: biochemical; settings: β-lapachone as substrate
T1 construct: S9 Supernatants were prepared from cells in mid-log to late log phase growth; endogenous in cells; host or cells: cancer cell lines, mostly from a non-small cell lung cancer panel (e.g. Calu-3); S9 supernatants
T1 sequence (P15559 whole entry R139W): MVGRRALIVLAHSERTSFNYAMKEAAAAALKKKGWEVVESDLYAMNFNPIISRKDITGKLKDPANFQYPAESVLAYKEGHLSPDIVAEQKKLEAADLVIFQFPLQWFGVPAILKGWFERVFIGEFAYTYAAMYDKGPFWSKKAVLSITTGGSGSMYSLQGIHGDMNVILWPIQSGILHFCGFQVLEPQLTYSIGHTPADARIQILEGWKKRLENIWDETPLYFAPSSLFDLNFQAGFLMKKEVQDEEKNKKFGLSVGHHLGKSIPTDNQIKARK
Procedure: (§1) S9 Supernatants were prepared from cells in mid-log to late log phase growth. […] The cell suspensions were sonicated on ice four times, using 10-s pulses, and then centrifuged at 14,000×g for 20 min. The S9 supernatants were aliquoted into microcentrifuge tubes and stored at −80° C. until used. A 1× protease inhibitor cocktail was added to prevent enzyme activity degradation. […] Menadione was used as the electron acceptor. NADH was used as the electron donor.
(§2) NQO1 activity was measured using NADH (200 μM) as the immediate electron donor and menadione (10 μM) as the intermediate electron acceptor. […] Biochem. Biophys. […] NADH: cytochrome b5 reductase was measured using NADH (200 μM) as the electron donor, and […] was measured using NADPH (200 μM) as electron donor (45) in a Beckman DU 640 spectrophotometer (Beckman Coulter, Fullerton, Calif.). Reactions were carried out at 37° C. and were initiated by the addition of S9 supernatants. Varying amounts of supernatants, from 10 to 40 μL, were used to ensure linearity of rates with protein concentration. […] Results shown are the average enzyme activity for three separate cell extractions±S.D. or both values from duplicate experiments.
(§3) Cell lines, mostly from a 5-panel nonsmall cell lung cancer panel from the UT Southwestern SPORE, were assessed for NQO1 polymorphism status and then monitored for NQO1 enzyme assays using β-lapachone or the standard menadione substrates. […] NQO1*2/*2 and *3/*3 polymorphisms were detected from NQO1 *1/*1 wild-type sequences by PCR-RFLP. Genomic DNA was extracted from the cells using Qiagen spin columns. Using previously described oligonucleotide primers, PCR products underwent gel electrophoresis. Final genotyping was determined based on the size and pattern of separated bands diagnostic for *1/*1 (wild-type), or polymorphic *2/*2 or *3/*3 NQO1 polymorphisms.

NQO1 [2] = test: as above; type: biochemical, human; settings: β-lapachone as substrate, HCC44 *1/*2
Procedure: as §1, §2, §3

[3] = target: T2, NQO1 in 231-NQ+ cell extracts (Homo sapiens, UniProt P15559); test: Oxygen consumption in S9 cell extracts; type: biochemical; settings: in 4 h, 231-NQ+ versus 231-NQ− cell extracts
T2 construct: expressed in transfected cells; host or cells: MDA-MB-231 (231-NQ+), S9 supernatant
T2 sequence (P15559 whole entry): as the sequence (P15559 whole entry R139W) above, with W139R counted along it

CC1(C)CCC2=C(O1)c1ccccc1C(=O)C2=O [β-Lap, 3,4-dihydro-2,2-dimethyl-2H-naphtho[1,2-b]pyran-5,6-dione]
NQO1 activity, β-Lap (NQO1 [1]; Calu-3/NSCLC *3/*3): 243 ± 2 nmol/min/µg
NQO1 activity, β-Lap (NQO1 [1]; H2009/NSCLC *3/*3): 120 ± 3 nmol/min/µg
NQO1 activity, β-Lap (NQO1 [1]; HCC1171/NSCLC *3/*3): 369 ± 9 nmol/min/µg
NQO1 activity, β-Lap (NQO1 [1]; T47D/BreastCancer *3/*3): 138 ± 3 nmol/min/µg
NQO1 activity, β-Lap (NQO1 [2]): 879 ± 14 nmol/min/µg
Increase of O2 consumption [3]: ~40 fold
